# Reference: ChEMBL document CHEMBL1201862, “PubChem BioAssay data set” (2004)
# Where “and” joins values, the source holds several entries; their conditions need not be identical. Equal values may be shown once. Calls of active or inactive are those of the source.
# Assays:
# Cytochrome P450 3A4 = Cytochrome P450 3A4 (Homo sapiens, UniProt P08684); conditions: Potency;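 further: confirmatory qHTS run detecting inhibitors and substrates of CYP3A4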
# Prothrombin = Prothrombin (Homo sapiens, UniProt P00734); test: Thrombin 1536 HTS Dose Response Confirmation. [Related pubchem assays: 1046 (Thrombin 1536 HTS; hits were confirmed in this assay)]; assay type: functional
# [1] = biological target: T1, DNA repair protein RAD52 homolog (Homo sapiens, UniProt P43351); assay type: functional, biochemical
# T1 sequence (P43351 whole entry): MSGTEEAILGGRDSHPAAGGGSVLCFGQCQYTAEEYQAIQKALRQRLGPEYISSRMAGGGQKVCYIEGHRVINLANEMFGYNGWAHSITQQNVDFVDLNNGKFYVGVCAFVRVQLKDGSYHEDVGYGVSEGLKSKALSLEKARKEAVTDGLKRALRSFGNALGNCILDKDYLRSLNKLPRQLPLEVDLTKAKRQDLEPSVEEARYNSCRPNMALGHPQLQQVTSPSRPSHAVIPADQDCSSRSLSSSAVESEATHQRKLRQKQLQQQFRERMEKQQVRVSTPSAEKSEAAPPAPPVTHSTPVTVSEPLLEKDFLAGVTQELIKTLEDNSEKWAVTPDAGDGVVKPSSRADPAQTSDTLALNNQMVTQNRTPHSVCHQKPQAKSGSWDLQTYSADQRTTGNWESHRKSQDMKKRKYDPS
# Galanin receptor type 3 = biological target: T2, Galanin receptor type 3 (Homo sapiens, UniProt O60755); test: Fluorescence-based cell-based primary high throughput dose response assay to identify antagonists of the Galanin Receptor 3 (GalR3).; assay type: functional
# T2 sequence (O60755 whole entry): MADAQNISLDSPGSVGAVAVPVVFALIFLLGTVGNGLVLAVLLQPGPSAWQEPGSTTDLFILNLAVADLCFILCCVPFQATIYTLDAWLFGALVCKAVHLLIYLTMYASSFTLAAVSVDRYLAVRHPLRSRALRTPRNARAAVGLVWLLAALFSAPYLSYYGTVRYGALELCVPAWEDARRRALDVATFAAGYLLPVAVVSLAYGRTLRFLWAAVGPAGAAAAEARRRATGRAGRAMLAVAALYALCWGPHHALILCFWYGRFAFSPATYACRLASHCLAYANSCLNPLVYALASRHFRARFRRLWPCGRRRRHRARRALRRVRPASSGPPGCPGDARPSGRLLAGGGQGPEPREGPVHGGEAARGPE
# cells [2] = assay type: functional, cell-based; conditions: HEK-CNG
# Cytochrome P450 2D6 = Cytochrome P450 2D6 (Homo sapiens, UniProt P10635);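 further: CYP2D6 member of a cytochrome P450 panel assay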
# Chain of Cytochrome P450 2D6 (P10635 whole entry): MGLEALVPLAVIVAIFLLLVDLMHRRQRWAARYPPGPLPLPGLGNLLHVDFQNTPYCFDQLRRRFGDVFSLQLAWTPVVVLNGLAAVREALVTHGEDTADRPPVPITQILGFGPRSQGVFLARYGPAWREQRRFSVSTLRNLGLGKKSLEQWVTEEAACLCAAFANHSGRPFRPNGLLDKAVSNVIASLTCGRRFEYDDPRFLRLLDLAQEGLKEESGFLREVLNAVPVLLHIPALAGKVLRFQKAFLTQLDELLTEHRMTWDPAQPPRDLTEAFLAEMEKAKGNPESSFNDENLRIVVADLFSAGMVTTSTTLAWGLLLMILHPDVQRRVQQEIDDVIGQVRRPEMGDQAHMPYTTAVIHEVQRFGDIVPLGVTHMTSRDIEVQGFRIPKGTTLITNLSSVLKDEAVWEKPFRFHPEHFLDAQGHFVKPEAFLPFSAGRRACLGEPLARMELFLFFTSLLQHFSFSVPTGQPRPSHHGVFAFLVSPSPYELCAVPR
# [3] = Luminescence Cell-Based Dose Response to Identify Activators of 5'UTR Stem-Loop Driven Prion Protein mRNA Translation in H4-C Neuroglioblastoma Cells. [Related pubchem assays: 1829 (Project Summary), 1814 (Primary HTS)]; assay type: functional
# [4] = Luminescence Cell-Based Dose Response HTS to Identify Activators of Luciferase Translation or Activity in H4 […] Cells. [Related pubchem assays: 1829 (Project Summary), 1814 (Primary HTS)]; assay type: functional
# H4 = test: Luminescence Cell-Based Dose Response HTS to Identify Activators of 5'UTR Stem-Loop Driven Prion Protein mRNA Translation in H4 Neuroglioblastoma Cells. [Related pubchem assays: 1829 (Project Summary), 1814 (Primary HTS)]; assay type: functional; conditions: Homo sapiens
# [5] = Luminescence Cell-Based Dose Response to Identify Activators of Luciferase Translation or Activity in H4-C Neuroglioblastoma Cells. [Related pubchem assays: 1829 (Project Summary), 1814 (Primary HTS)]; assay type: functional
# [6] = Luminescence Cell-Based Dose Confirmation to Identify Activators of 5'UTR Stem-Loop Driven Alpha-Synuclein mRNA Translation in H4 Neuroglioblastoma Cells. [Related pubchem assays: 1829 (Project Summary), 1814 (Primary HTS)]; assay type: functional
# [7] = inhibitors of HIV Env-driven cell fusion, dose response, cherry-pick (AID 652057); assay type: functional, cell-based
# [8] = ZM109 Env clade C HIV-1 fusion inhibitors, dose response, HeLa effector, CEM target cells, luciferase, cherry-pick (AID 652058); assay type: functional, cell-based
# [9] = inhibitors of clade B AD8 Env fusion, dose response, cell-based, cherry-pick (AID 652062); assay type: functional;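 further: luciferase signal from cell-cell fusion driven by HIV-1 clade B AD8 Env; potency is for inhibitors of fusion seen as a drop in luminescence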
# [10] = biological target: Induced myeloid leukemia cell differentiation protein Mcl-1 (Homo sapiens, UniProt Q07820); assay type: functional
# Chain of Induced myeloid leukemia cell differentiation protein Mcl-1 (Q07820 whole entry): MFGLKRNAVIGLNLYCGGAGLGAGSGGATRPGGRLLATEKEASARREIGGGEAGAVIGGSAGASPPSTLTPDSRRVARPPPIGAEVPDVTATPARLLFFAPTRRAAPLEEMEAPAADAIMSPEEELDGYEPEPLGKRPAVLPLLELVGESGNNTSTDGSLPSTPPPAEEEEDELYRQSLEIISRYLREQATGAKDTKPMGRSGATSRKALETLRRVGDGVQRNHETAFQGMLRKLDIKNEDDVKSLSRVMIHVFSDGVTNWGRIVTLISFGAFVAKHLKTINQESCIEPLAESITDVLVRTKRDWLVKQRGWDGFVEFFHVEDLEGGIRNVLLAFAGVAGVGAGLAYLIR
# cells [11] = assay type: functional, cell-based
# cells [12] = assay type: functional, cell-based; remark: listed apart in the source
# [13] = biological target: T3, RNA-binding protein pos-1 (Caenorhabditis elegans, UniProt G5EF15); test: inhibitors of POS-1/mex-3 RNA binding, dose response, biochemical, fluorescence polarization (AID 1964);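 further: purified POS-1 fused to maltose binding protein made in E. coli; potency of compounds blocking POS-1 binding to fluorescent RNA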
# T3 sequence (G5EF15 whole entry): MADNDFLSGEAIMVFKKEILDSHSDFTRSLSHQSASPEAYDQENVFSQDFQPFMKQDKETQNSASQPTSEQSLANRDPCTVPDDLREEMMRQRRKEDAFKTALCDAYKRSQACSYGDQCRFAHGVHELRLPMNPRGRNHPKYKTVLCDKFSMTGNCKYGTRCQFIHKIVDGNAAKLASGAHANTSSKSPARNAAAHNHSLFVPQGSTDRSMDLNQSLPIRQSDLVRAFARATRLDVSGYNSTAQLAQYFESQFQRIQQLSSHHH
# [14] = biological target: T4, Zinc finger protein mex-5 (Caenorhabditis elegans, UniProt Q9XUB2); test: MEX-5/TCR-2 RNA interaction inhibitors, dose response, biochemical, C. elegans, fluorescence polarization (AID 1960)
# T4 sequence (Q9XUB2 whole entry): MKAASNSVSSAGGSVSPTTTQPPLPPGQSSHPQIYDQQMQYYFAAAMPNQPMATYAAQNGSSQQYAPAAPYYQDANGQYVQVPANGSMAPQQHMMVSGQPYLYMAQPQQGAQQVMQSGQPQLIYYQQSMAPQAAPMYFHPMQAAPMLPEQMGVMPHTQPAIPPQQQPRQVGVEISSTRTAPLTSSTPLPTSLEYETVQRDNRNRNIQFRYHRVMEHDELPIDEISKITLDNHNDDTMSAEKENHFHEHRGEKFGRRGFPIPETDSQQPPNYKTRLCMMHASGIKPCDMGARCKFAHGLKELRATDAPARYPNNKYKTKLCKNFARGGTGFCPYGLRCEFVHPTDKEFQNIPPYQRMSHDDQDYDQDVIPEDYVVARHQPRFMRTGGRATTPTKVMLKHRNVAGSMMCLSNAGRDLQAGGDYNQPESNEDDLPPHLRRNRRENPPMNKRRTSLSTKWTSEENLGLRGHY
# [15] = biological target: T5, Long-chain-fatty-acid--AMP ligase FadD28 (Mycobacterium tuberculosis, UniProt P9WQ59); test: Fluorescence polarization aasay to screen for inhibitors that compete for the binding of FadD28 to a bisubstrate Measured in Biochemical System Using Plate Reader - 2147-01_Inhibitor_Dose_CherryPick_Activity.; assay type: functional, Mycobacterium tuberculosis H37Rv
# T5 sequence (P9WQ59 whole entry): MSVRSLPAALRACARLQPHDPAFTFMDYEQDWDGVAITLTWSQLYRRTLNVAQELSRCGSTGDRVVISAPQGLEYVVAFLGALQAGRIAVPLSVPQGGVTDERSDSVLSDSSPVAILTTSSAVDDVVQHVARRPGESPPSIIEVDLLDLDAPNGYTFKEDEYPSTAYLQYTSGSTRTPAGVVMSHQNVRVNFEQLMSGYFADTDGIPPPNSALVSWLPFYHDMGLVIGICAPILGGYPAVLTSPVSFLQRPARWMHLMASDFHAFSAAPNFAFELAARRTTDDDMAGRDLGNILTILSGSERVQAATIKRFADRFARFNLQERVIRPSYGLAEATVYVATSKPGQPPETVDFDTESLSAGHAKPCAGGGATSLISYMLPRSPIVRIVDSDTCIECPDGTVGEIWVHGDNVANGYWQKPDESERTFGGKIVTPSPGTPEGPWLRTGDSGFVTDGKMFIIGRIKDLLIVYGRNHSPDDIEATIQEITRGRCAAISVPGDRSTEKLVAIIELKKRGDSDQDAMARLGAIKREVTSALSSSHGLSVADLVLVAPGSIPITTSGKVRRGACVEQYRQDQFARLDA
# Beta-galactosidase = Beta-galactosidase (Escherichia coli, UniProt Q8VNN2); test: Dose response counterscreen for EBI2 assay utilizing the enzyme, b-galactosidase.; assay type: functional
# Chain of Beta-galactosidase (Q8VNN2 whole entry): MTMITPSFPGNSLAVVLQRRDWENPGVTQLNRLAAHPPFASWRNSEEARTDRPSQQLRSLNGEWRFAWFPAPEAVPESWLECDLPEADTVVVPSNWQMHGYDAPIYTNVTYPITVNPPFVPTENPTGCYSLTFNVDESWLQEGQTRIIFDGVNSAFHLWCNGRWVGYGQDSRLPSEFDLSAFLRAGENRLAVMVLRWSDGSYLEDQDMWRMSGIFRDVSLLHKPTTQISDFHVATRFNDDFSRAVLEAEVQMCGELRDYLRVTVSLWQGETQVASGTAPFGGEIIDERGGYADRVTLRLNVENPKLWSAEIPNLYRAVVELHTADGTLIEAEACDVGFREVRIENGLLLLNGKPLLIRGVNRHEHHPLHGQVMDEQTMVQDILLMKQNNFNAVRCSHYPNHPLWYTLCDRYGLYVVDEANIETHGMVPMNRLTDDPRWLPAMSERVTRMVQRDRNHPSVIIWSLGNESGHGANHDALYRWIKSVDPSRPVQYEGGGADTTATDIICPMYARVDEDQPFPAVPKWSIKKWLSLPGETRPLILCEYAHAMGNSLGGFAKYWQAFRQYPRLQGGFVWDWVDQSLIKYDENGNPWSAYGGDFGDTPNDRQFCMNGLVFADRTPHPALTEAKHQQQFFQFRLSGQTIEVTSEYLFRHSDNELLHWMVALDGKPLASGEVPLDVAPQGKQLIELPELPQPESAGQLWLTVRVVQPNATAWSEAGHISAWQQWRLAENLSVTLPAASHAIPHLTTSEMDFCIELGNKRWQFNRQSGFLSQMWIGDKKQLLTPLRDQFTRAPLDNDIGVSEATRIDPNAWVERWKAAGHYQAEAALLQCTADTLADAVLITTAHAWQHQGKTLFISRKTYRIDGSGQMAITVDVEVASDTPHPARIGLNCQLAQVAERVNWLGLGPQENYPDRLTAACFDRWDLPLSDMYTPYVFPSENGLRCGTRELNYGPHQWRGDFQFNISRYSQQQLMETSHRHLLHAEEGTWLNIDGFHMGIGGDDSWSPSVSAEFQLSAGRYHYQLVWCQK
# [16] = Luminescence Cell-Based Dose Confirmation HTS to Identify Activators of 5'UTR Stem-Loop Driven Alpha-Synuclein mRNA Translation in H4 Neuroglioblastoma Cells. [Related pubchem assays: 1829 (Project Summary), 1814 (Primary HTS)]; assay type: functional
# [17] = THP-1 cell cytotoxicity, dose response, cytotoxicity control for non-replicating M. tuberculosis project (AID 489025); assay type: functional
# cells [18] = assay type: functional
# [19] = cytotoxicity in HEK-293T cells, dose response, cytotoxicity control for BCR NF-kB inhibitor project, luminescence, B-cell screen hits (AID 489021); assay type: functional, cell-based;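 further: HEK-293T cells carrying an NF-kB luciferase reporter; cells exposed to compound for about 14 hours before viability readout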
# Chain of Cytochrome P450 3A4 (P08684 whole entry): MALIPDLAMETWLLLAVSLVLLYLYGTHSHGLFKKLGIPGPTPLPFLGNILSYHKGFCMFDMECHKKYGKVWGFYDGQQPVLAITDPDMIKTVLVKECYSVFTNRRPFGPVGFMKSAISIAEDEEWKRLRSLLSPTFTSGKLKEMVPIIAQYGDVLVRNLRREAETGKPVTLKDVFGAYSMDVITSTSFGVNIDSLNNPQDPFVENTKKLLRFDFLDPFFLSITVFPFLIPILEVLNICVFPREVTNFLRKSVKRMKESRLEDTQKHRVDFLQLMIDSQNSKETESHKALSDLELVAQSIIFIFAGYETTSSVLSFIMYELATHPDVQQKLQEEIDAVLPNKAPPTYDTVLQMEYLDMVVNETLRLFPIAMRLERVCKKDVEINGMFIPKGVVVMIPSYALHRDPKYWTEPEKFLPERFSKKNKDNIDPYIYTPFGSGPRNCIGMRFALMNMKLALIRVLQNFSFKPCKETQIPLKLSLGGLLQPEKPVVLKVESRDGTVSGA
smiles,measurement,setting,value
Nc1cccc2ccccc12,AC50,Cytochrome P450 3A4,31.6 µM (inconclusive)
Fc1ccc(Oc2cnc3ccccc3n2)cc1,IC50,Prothrombin,> 50 µM (not active)
COCCNc1nc(C)nc2c1nc(-c1ccccc1)n2CCN1CCCC1,AC50,Cytochrome P450 3A4,25.1 µM (inconclusive)
Cc1c(C)n(C)c2ccc(C(=O)NCCCN3CCN(C)CC3)cc12,AC50,[1],7.04 µM (active)
CO/C(O)=C1\C(C)=NC2=C(C(=O)CCC2)C1c1cn(Cc2ccc(Cl)cc2Cl)nc1-c1ccccc1 (stereo not given),IC50,Galanin receptor type 3,3.85 µM (active)
same,EC50,cells [2],> 29.9 µM (inactive)
same,AC50,Cytochrome P450 2D6,3.55 µM (inconclusive)
Fc1ccc(/C=N/NC2=Nc3cccc4cccc2c34)cc1,EC50,[3],0.233 µM (active)
same,EC50,[4],< 0.1 µM (inconclusive)
same,EC50,H4,< 0.1 µM (active)
same,EC50,[5],0.343 µM (active)
same,EC50,[6],0.278 µM (active)
Cc1noc(C)c1S(=O)(=O)N(C)C[C@@H]1Oc2ccc(NC(=O)Nc3cccc4ccccc34)cc2CC(=O)N([C@@H](C)CO)C[C@@H]1C,AC50,[7],4.83 µM (active)
same,AC50,[8],2.44 µM (active)
same,AC50,[9],9.04 µM (active)
Cn1c(SCC(=O)Nc2ccc3nc(SCC(=O)N4CCCC4)sc3c2)nnc1-c1ccccc1,IC50,[10],2.83 µM (active)
Cc1c(C(=O)N2CCc3ccccc3C2)oc2ccc(S(=O)(=O)N3CC(C)CC(C)C3)cc12 (stereo not given),IC50,cells [11],> 29.9 µM (inactive)
same,EC50,cells [12],> 29.9 µM (inactive)
CCN(CC)c1ccc(NC(=O)c2cncc(Br)c2)cc1,EC50,[3],> 12 µM (not active)
same,EC50,[4],1.48 µM (active)
same,EC50,H4,14.3 µM (active)
same,EC50,[5],> 12 µM (not active)
same,EC50,[6],0.53 µM (active)
COc1ccc(-c2nn(C)c(=O)c3ccccc23)cc1CNC(=O)C1CCCCC1,IC50,Prothrombin,> 50 µM (not active)
COc1ccc(NC(=O)Nc2ccc3c(c2)C(=O)N([C@@H](C)CO)C[C@H](C)[C@H](CN(C)Cc2ccncc2)OCCCC[C@H](C)O3)cc1,AC50,[7],0.541 µM (active)
same,AC50,[8],0.412 µM (active)
same,AC50,[9],12.7 µM (active)
CCc1c(C(=O)NNC(=S)Nc2ccc(S(=O)(=O)Nc3ncccn3)cc2)csc1C,EC50,[13],> 300 µM (not active)
same,EC50,[14],12.5 µM (active)
same,AC50,[15],89.7 µM (active)
COc1cccc(/C=C/C(=O)N2CCN(S(=O)(=O)c3ccccc3)CC2)c1,IC50,Beta-galactosidase,> 80 µM (inactive)
Cc1ccc(NC(=O)C2CCCN(c3ncccn3)C2)cc1F (stereo not given),EC50,[3],1.22 µM (active)
same,EC50,[16],< 0.1 µM (active)
same,EC50,[4],0.125 µM (inconclusive)
same,EC50,H4,6.45 µM (active)
same,EC50,[5],0.856 µM (active)
same,EC50,[6],0.141 µM (active)
Cc1ccccc1OCCNc1cc(N2CC(C)NC(C)C2)ccc1[N+](=O)[O-] (stereo not given),CC50,[17],21.4 µM (active)
same,IC50,cells [18],12.8 µM (active)
Cn1c(=O)c2c(SCC(=O)Nc3ccccc3F)nc(-c3ccccc3F)nc2n(C)c1=O,IC50,[19],> 80 µM (inactive)
CSC1=N/C(=C\c2ccc(C)o2)C(=O)S1,IC50,Prothrombin,> 50 µM (not active)
O=C(c1cc2cc(Cl)ccc2[nH]1)N1CCC2(CC1)OCCO2,IC50,Beta-galactosidase,> 80 µM (inactive)
CCCCC/C=C\C/C=C\C/C=C\C/C=C\CCCC(=O)O [ARACHIDONIC ACID],AC50,Cytochrome P450 3A4,39.8 µM (inconclusive) and 7.94 µM (inconclusive)
CCN(CC)c1ccc(/C=C2/C(=O)ON=C2C)cc1,IC50,[19],> 80 µM (inactive)
O=C(/C=C/c1ccc(Cl)cc1)N1CCN(c2ccccn2)CC1,IC50,Beta-galactosidase,> 80 µM (inactive)
CCN1CCN(C(=O)c2cc3c(s2)-c2c(C)cccc2OC3)CC1,EC50,[4],5.32 µM (active)
same,EC50,H4,9.85 µM (active)
same,IC50,Beta-galactosidase,> 80 µM (inactive)
O=[N+]([O-])c1[nH]cnc1/C=C/c1ccccc1,IC50,cells [11],> 29.9 µM (inactive)
same,EC50,cells [12],> 29.9 µM (inactive)
